Key:
[1] = system: human gingival fibroblasts (HGF); assay: Direct contact cytotoxicity, LIVE/DEAD viability, HGF cells; format: cell-based; conditions: for effect of exposure time on HGF live cells, difference of means: regardless of concentration; for effect of monomer concentration on HGF cell viability: two-fold serial dilutions, 24 h and 72 h
Method: (§1) Immortalized human gingival fibroblasts (HGF) were purchased from Applied Biological Materials, Inc. (Richmond, British Columbia, Canada). […] For experiments, cells were obtained from a subconfluent stock culture.
(§2) Direct contact cytotoxicity testing was conducted as previously described^7, 8. Briefly, cells were exposed to two-fold serial dilutions of AMadh series monomers or AMsil series monomers to approximate the maximum possible exposure, (Table 9). Table 9 illustrates biocompatibility testing using maximum possible monomer exposure (mmol/L), assuming 7% mass fraction in the restorative with a maximum of 2% leaching. To account for multiplicity and variable size of restorations, a two- and four-fold greater dilution was also included in the testing. After 24 and 72 h, cells were assessed for cell viability using the LIVE/DEAD® Viability/Cytotoxicity kit (Life Technologies, Corp., Grand Island, N.Y.). Cellular metabolic activity was subsequently assessed using the CellTiter® AQueous One Solution Reagent (Promega, Corp., Madison, Wis.). Negative controls were without the novel monomer and/or cells. Mean+standard error was obtained from five independent replicates tested in triplicate.

[2] = system: human gingival fibroblasts (HGF); assay: Cellular metabolic activity (CellTiter AQueous One Solution Reagent), HGF cells; format: cell-based; conditions: for effect on metabolic activity of HGF cells: two-fold serial dilutions, 24 h and 72 h
Method: as §1, §2

[3] = system: mouse subcutaneous connective tissue fibroblasts (NCTC clone 929, CCL1); assay: Direct contact cytotoxicity, LIVE/DEAD viability, CCL1 cells; format: cell-based
[4] = Sessile drop water contact angle (CA) on resin pellets; format: physicochemical
Method: (§3) Experimental resin (UPE) was formulated from the commercially available monomers urethane dimethacrylate (UDMA, 50.91% w/w), polyethylene glycol extended urethane dimethacrylate (PEG-U, 18.18% w/w), and ethyl 2-(hydroxymethyl)acrylate (EHMA, 30.91% w/w). A conventional visible light initiator system comprised of camphorquinone (0.2% w/w) and ethyl-4-N,N-dimethylamino benzoate (4EDMAB, 0.8% w/w) was utilized. […] Copolymer specimens (beams) were prepared by depositing UPE (UPE resin control) and AM-UPE resins into glass molds (2 mm×2 mm×25 mm) and photopolymerizing them with a dental curing light (Triad 2000, Dentsply, Charlotte, N.C., USA) for 2 minutes from two sides. Copolymer specimens (pellets) were prepared by depositing UPE and AM-UPE resins into a stainless-steel mold (1 mm×16 mm), sandwiched between two sheets of Mylar film and two glass slides and photopolymerized in the same manner as the beam samples. Degree of vinyl conversion (DVC) of UPE and AM-UPE resins was determined utilizing beam samples by collecting the near infra-red (NIR) spectra (Nexus 670, ThermoFisher, Madison, Wis., USA) before and 24 h after polymerization and calculating the reduction in absorption band at 6165 cm^−1 corresponding to the vinyl (C═C—H) overtone signal. By maintaining a constant specimen thickness, a need for an invariant internal standard was eliminated. The DVC was calculated as: […]
(§4) where Area(polymer) and Area(monomer) correspond to the areas under 6165 cm^−1 peaks after and before the polymerization, respectively. After DVC analysis, flexural strength (FS) and elastic modulus (E) of beam specimen were determined employing the Universal Testing Machine (Instron 5500R, Instron Corp., Canton, Mass., USA). The load was applied (at cross-head speed of 1 mm/min) to the center of a specimen positioned on a test device with supports 20 mm apart. The FS and E of the specimens (three replicates/experimental group) was calculated as instructed in the ISO4049:2009 document. Changes in hydrophilicity/hydrophobicity of UPE resins due to the introduction of AM monomers were assessed on pellet specimen by sessile drop contact angle (CA) measurements (drop shape analyzer DSA100, Krüss GmbH, Hamburg, Germany). Following the deposition of 4 μL water droplets on the resin pellets, the pellets were imaged after 1 min resting time with a camera at the points of intersection (three-phase contact points) between the drop contour and the projection of the surface (baseline). The CA water values were calculated employing the Krüss Advance software. At least four repetitive measurements were performed in each group. Analysis of variance (ANOVA) and Newman-Keuls multiple paired comparisons (at 95% confidence level) were used to analyze the experimental data as a function of resin composition and establish a statistical significance of differences between the experimental groups (WINKS 7.0.9, TexaSoft, Cedar Hills, Tex., USA).

[5] = system: CCL1 cells; assay: Cellular metabolic activity (CellTiter AQueous One Solution Reagent), CCL1 cells; format: cell-based; conditions: for effect of monomer concentration on CCL1 metabolic activity: two-fold serial dilutions, 24 h and 72 h
[6] = Degree of vinyl conversion (DVC) by near infra-red spectra of copolymer beams; format: physicochemical
Method: as §3, §4

[7] = two-fold serial dilutions, 24 h and 72 h

## C=C(C)C(=O)OCC[N+](C)(C)CCCCCCCCCCC(=O)O.[Br-] [AMadh2, 10-carboxy-N-(2-(methacryloyloxy)ethyl)-N,N-dimethyldecan-1-aminium bromide]
[1]; 24 h vs 72 h
  effect of exposure time on HGF live cells, difference of means: ~16%
[1]
  effect of monomer concentration on HGF cell viability: no significant effect
[2]; 24 h vs 72 h
  time of exposure decreased HGF metabolic activity, difference of means: 19.01
[2]
  effect on metabolic activity of HGF cells: not affected by the level of AMadh2
[3]; 8.8 mmol/L, 72 h exposure
  percentage of live CCL1 cells, fold lower compared to concentrations ≤4.4 mmol/L: at least 10 fold
[3]; 8.8 mmol/L, independent of time
  least squares mean of live CCL1 cells, fold lower than at lower concentrations: approx. 2 fold
[3]; ≤2.2 mmol/L (24 h) and ≤0.28 mmol/L (72 h)
  percent live CCL1 cells compared to control group (no monomer): increased
[3]; ≤8.8 mmol/L
  effect of concentration on the number of dead CCL1 cells: not statistically different
[4]; 10 mass percent in UPE resin
  effect on hydrophobic-hydrophilic properties of the copolymer: a shift towards the lower CA values
  reduction of water CA relative to UPE resin control: 18 °
[4]; 20 mass percent in UPE resin
  effect on hydrophobic-hydrophilic properties of the copolymer: did not alter the hydrophobic-hydrophilic properties
[5]; 24 h, 8.8 mm/L
  CCL1 cell metabolic activity: reduced
[5]; 72 h
  CCL1 cell metabolic activity: markedly reduced
[5]
  effect of monomer concentration on CCL1 metabolic activity: exerted an effect

## C=C(C)C(=O)OCC[N+](C)(C)CCC[Si](OC)(OC)OC.[I-] [AMsil1, N-(2-(methacryloyloxy)ethyl)-N,N-dimethyl-3-(trimethoxysilyl)propan-1-aminium iodide]
[1]; 24 h vs 72 h, independent of concentration
  exposure time reduced HGF viability, difference of means: 19.73
[1]; lower concentrations (≤0.13 mmol/L)
  number of live HGFs: decreased
[1]
  effect of monomer concentration on HGF cell viability: exerted a main effect
[2]
  effect on metabolic activity of HGF cells: did not statistically affect the metabolic activity
[3]; 0.07 mmol/L, 24 h
  dead CCL1 cells: 128.0 ± 27.1 % Control
  live CCL1 cells: 156.8 ± 21.4 % Control
[3]; 0.07 mmol/L, 72 h
  dead CCL1 cells: 134.0 ± 36.5 % Control
  live CCL1 cells: 122.5 ± 5.6 % Control
[3]; 0.13 mmol/L, 24 h
  dead CCL1 cells: 85.1 ± 11.2 % Control
  live CCL1 cells: 145.1 ± 14.8 % Control
[3]; 0.13 mmol/L, 72 h
  dead CCL1 cells: 140.3 ± 32.7 % Control
  live CCL1 cells: 122.1 ± 8.5 % Control
[3]; 0.26 mmol/L, 24 h
  dead CCL1 cells: 96.8 ± 15.5 % Control
  live CCL1 cells: 154.5 ± 25.0 % Control
[3]; 0.26 mmol/L, 72 h
  live CCL1 cells: 108.9 ± 18.6 % Control
[3]; 0.52 mmol/L, 24 h
  dead CCL1 cells: 117.4 ± 27.1 % Control
  live CCL1 cells: 147.3 ± 20.3 % Control
[3]; 0.52 mmol/L, 72 h
  dead CCL1 cells: 124.6 ± 22.9 % Control
  live CCL1 cells: 122.9 ± 11.1 % Control
[3]; 1.04 mmol/L, 24 h
  dead CCL1 cells: 96.0 ± 16.2 % Control
  live CCL1 cells: 157.9 ± 18.8 % Control
[3]; 1.04 mmol/L, 72 h
  dead CCL1 cells: 128.8 ± 20.2 % Control
  live CCL1 cells: 142.0 ± 6.5 % Control
[3]; 2.09 mmol/L, 24 h
  dead CCL1 cells: 86.1 ± 11.7 % Control
  live CCL1 cells: 152.5 ± 20.3 % Control
[3]; 2.09 mmol/L, 72 h
  dead CCL1 cells: 147.6 ± 38.5 % Control
  live CCL1 cells: 136.0 ± 7.2 % Control
[3]; 4.17 mmol/L, 24 h
  dead CCL1 cells: 85.8 ± 13.1 % Control
  live CCL1 cells: 161.3 ± 15.2 % Control
[3]; 4.17 mmol/L, 72 h
  dead CCL1 cells: 91.6 ± 13.7 % Control
  live CCL1 cells: 132.1 ± 6.7 % Control
[3]; 8.34 mmol/L, 24 h
  dead CCL1 cells: 93.0 ± 15.4 % Control
  live CCL1 cells: 149.6 ± 37.4 % Control
[3]; 8.34 mmol/L, 72 h
  dead CCL1 cells: 106.8 ± 7.4 % Control
  live CCL1 cells: 110.8 ± 12.3 % Control
[3]; 24 h vs 72 h
  exposure time reduced the number of live CCL1 cells, fold difference of mean: 1.2 fold
[3]; [7]
  effect of monomer concentration on CCL1 cell viability: did not exert a statistical effect
[6]; 10 mass percent in UPE resin
  reduction of DVC relative to UPE resin control: approximately 27%
[6]; 20 mass percent in UPE resin
  reduction of DVC relative to UPE resin control: ~17%
[4]; 10 mass % monomer in UPE resin
  CA: 46.9±5.9 °
  reduction of CA relative to UPE resin control: 23%
[4]; 10 mass percent in UPE resin
  effect on hydrophobic-hydrophilic properties of the copolymer: a shift towards the lower CA values
[4]; 20 mass percent in UPE resin
  effect on hydrophobic-hydrophilic properties of the copolymer: maintained the hydrophobic-hydrophilic balance
[5]
  effect of monomer concentration on CCL1 metabolic activity: did not affect

## C=C(C)C(=O)OCC[N+](C)(C)CCCCCC(=O)O.[Br-] [AMadh1, 5-carboxy-N-(2-(methacryloyloxy)ethyl)-N,N-dimethylpentan-1-aminium bromide]
[1]; 0.08 mmol/L, 24 h
  dead HGF cells: 102.1 ± 0.9 % control
  live HGF cells: 92.8 ± 11.3 % control
[1]; 0.08 mmol/L, 72 h
  dead HGF cells: 99.5 ± 8.0 % control
  live HGF cells: 121.6 ± 12.6 % control
[1]; 0.17 mmol/L, 24 h
  dead HGF cells: 99.1 ± 1.7 % control
  live HGF cells: 77.3 ± 15.9 % control
[1]; 0.17 mmol/L, 72 h
  dead HGF cells: 98.8 ± 9.1 % control
  live HGF cells: 95.1 ± 14.4 % control
[1]; 0.33 mmol/L, 24 h
  dead HGF cells: 103.5 ± 3.7 % control
  live HGF cells: 110.4 ± 9.7 % control
[1]; 0.33 mmol/L, 72 h
  dead HGF cells: 102.0 ± 12.8 % control
  live HGF cells: 116.8 ± 12.3 % control
[1]; 0.66 mmol/L, 24 h
  dead HGF cells: 101.5 ± 2.5 % control
  live HGF cells: 107.4 ± 4.7 % control
[1]; 0.66 mmol/L, 72 h
  dead HGF cells: 92.1 ± 8.7 % control
  live HGF cells: 133.0 ± 8.4 % control
[1]; 1.33 mmol/L, 24 h
  dead HGF cells: 110.9 ± 7.1 % control
  live HGF cells: 121.8 ± 8.2 % control
[1]; 1.33 mmol/L, 72 h
  dead HGF cells: 89.5 ± 8.9 % control
  live HGF cells: 107.6 ± 6.9 % control
[1]; 2.65 mmol/L, 24 h
  dead HGF cells: 100.4 ± 1.0 % control
  live HGF cells: 111.7 ± 10.0 % control
[1]; 2.65 mmol/L, 72 h
  dead HGF cells: 104.0 ± 17.1 % control
  live HGF cells: 107.8 ± 4.0 % control
[1]; 5.3 mmol/L, 24 h
  dead HGF cells: 102.7 ± 2.6 % control
  live HGF cells: 108.8 ± 14.8 % control
[1]; 5.3 mmol/L, 72 h
  dead HGF cells: 88.9 ± 6.8 % control
  live HGF cells: 130.5 ± 9.2 % control
[1]; 10.6 mmol/L, 24 h
  dead HGF cells: 100.9 ± 1.7 % control
  live HGF cells: 92.4 ± 10.8 % control
[1]; 10.6 mmol/L, 72 h
  dead HGF cells: 90.3 ± 11.6 % control
  live HGF cells: 103.7 ± 7.8 % control
[1]; 24 h vs 72 h
  effect of exposure time on HGF live cells, difference of means: 10.4%
[1]
  effect of monomer concentration on HGF cell viability: monomer concentration affected
[1]; ≤10.6 mmol/L, 24 h or 72 h, % control
  number of live HGF cells in monomer-treated groups, median of least square means: 111.7%
[2]
  effect on metabolic activity of HGF cells: Neither AMadh1 concentration nor time of exposure significantly affected the metabolic activity
[3]; 10.6 mmol/L, 72 h exposure
  decrease of mean number of live CCL1 cells compared to all lower concentrations: ≤ 2.5 fold
[3]; 24 h exposure, ≤10.6 mmol/L
  effect of monomer concentration on CCL1 cell viability: insignificant
[3]; [7]
  effect of monomer concentration on CCL1 cell viability: exerted a main effect
[6]; 10 mass percent in UPE resin
  increase of DVC relative to UPE resin control: 2%
[6]; 20 mass percent in UPE resin
  increase of DVC relative to UPE resin control: 3%
[4]; 10 and 20 mass percent in UPE resin
  effect on hydrophobic-hydrophilic properties of the copolymer: did not alter the hydrophobic-hydrophilic properties
[5]
  effect of monomer concentration on CCL1 metabolic activity: A main effect
